Values of other authors in patent US20070203145A1, “ZOPICLONE RESOLUTION” (priority 2006, published 2007).

Key:
[1] = compared with racemic zopiclone; per U.S. Pat. No. 6,444,673
[2] = compared with racemic zopiclone; per U.S. Pat. No. 6,444,673; remark: listed apart in the source

Q: With `CN1CCN(C(=O)O[C@H]2c3nccnc3C(=O)N2c2ccc(Cl)cn2)CC1` [S-zopiclone, Eszopiclone] as the compound, how does the “toxicity relative to the racemic mixture” value [1] read?
A: Its value is “less toxicity”.

Q: And the “activity relative to the racemic mixture” value [2]?
A: The value was “twice the activity of the racemic mixture”.
